According to US7780873B2, “Bioactive complexes compositions and methods of use thereof” (Texas A&M University System, priority 2004, dated 2010):
Where two headings read alike, the source gives them in different places.

How the values were obtained:
[1] = rat duodenal infusion, cited from earlier work
[2] = test system: human promyelocytic leukemia HL-60 cells; conditions: cited from earlier work
[3] = Lipid oxidation of O/W Menhaden oil-based emulsions; type: physicochemical; conditions: gallic acid alone or with coenzyme Q10; emulsified with egg yolk PC; pH 6.0; GC
[4] = from emulsions containing corn oil

Row | pro-/antioxidative properties of control samples [3] | SMILES | average recovery in the lymph [1, 4] [%] | average recovery in the lymph ([1]; from olive oil emulsion) [%] | apoptotic cell death [2]
1 | – | CC(C)=CCC/C(C)=C/C=C/C(C)=C/C=C/C(C)=C/C=C/C=C(C)/C=C/C=C(C)/C=C/C=C(\C)CCC=C(C)C [LYC, lycopene] | 2.5 | 6 | –
2 | – | CC1=C(/C=C/C(C)=C/C=C/C(C)=C/C=C/C=C(C)/C=C/C=C(C)/C=C/C2=C(C)C(=O)[C@@H](O)CC2(C)C)C(C)(C)C[C@H](O)C1=O [astaxanthin] | 13 | 20 | –
3 | prooxidative properties | O=C(O)c1cc(O)c(O)c(O)c1 [gallic acid] | – | – | induced apoptotic cell death
